EP2181589A1, “Neurotoxic sterol glycosides” (Shaw, Christopher Ariel, priority 2008, dated 2010)
Values joined by “and” are separate entries in the source; they are usually repeats but may differ in a detail not shown here. Equal entries are not always repeated. “Also recorded” adds a separate entry of the source.

Key:
CD-1 mice [1] = experiment: Rotarod test; assay type: in vivo; conditions: SG-fed vs control, duration of the study
Protocol: (§1) Five-month old male CD-1 mice (30.1-35.7 g, 7.5 cm - 8.8 cm) were purchased from Charles River (Wilmington, MA). Adult mice were chosen to mimic the mean age of onset of ALS-PDC (Kurland, 1988; Kurland et al., 1994). Thirty mice for the SG study were randomly divided into 2 groups (14 control and 16 experimental animals). All animals were housed singly in a virus-free barrier facility in a room maintained at 22°C under a 12 hour light/dark cycle. The mice were provided ad libitum access to food and water.
(§2) The synthetic SG was mixed with finely ground Purina Chow mouse pellets (Mouse Diet™, Purina) to create the experimental pellets with a SG content of 1000 µg per pellet. Dry materials were blended with a sterile silicon spatula. […] SG feeding was conducted daily for 15 weeks and mice were behaviorally monitored until sacrifice at 35 weeks (time point 1) or 52 weeks (time point 2).
Rotorod: The rotarod was used to evaluate motor function, coordination and balance (Jones and Roberts, 1968; Sango et al., 1995; Gerlai et al., 1996a; Sango et al., 1996; Chapillon et al., 1998; Carter et al., 1999; Crawley, 1999; Gerlai and Roder, 1996). The time that a mouse could remain walking on a horizontal (Norflus et al., 1998), rotating axle (3.6 cm diameter; 16 rpm) elevated above an area of padding without falling, clenching on, or jumping off the axle was measured (Crawley, 1999), see FIGURE 15. […]

CD-1 mice [2] = experiment: Leg extension reflex test; assay type: in vivo
Protocol: as §1
as §2, with “spatula. For every 5 g of standard feed, 2.5 mL of doubly-distilled water (dd)H2O was added and the dough was kneaded and round up into pellets. A single sterol glucoside containing pellet was placed in the feeding tray each morning before the addition of regular mouse chow (ad libitum).” for “spatula.”
Leg extension reflex test: The leg extension reflex test was used as a measure of motor neuron dysfunction (Barneoud and Curet, 1999). […] The leg extension reflex was measured three times per week in each animal. […]

[3] = tested on: Phosphorylated TDP-43 aggregates; experiment: TDP-43 immunofluorescence; assay type: in vivo, CD-1 mice; design: key to Phosphorylated TDP-43 aggregates: - = not present; + = present; conditions: for Phosphorylated TDP-43 aggregates: SG-fed
Protocol: The synthetic SG was mixed with finely ground Purina Chow mouse pellets (Mouse Diet™, Purina) to create the experimental pellets with a SG content of 1000 µg per pellet. Dry materials were blended with a sterile silicon spatula. For every 5 g of standard feed, 2.5 mL of doubly-distilled water (dd)H2O was added and the dough was kneaded and round up into pellets. A single sterol glucoside containing pellet was placed in the feeding tray each morning before the addition of regular mouse chow (ad libitum). All experimental pellets were entirely consumed by the mice each day. Control mice were fed standard mouse chow pellets of identical weight with no additives. SG feeding was conducted daily for 15 weeks and mice were behaviorally monitored until sacrifice at 35 weeks (time point 1) or 52 weeks (time point 2).
Tissue-mounted slides were processed for fluorescence microscopy as follows: Sections were rinsed in coplin jars for 45 minutes at room temperature (RT) in three changes of PBS. Sections were then incubated at RT for 30 minutes in a blocking permeabilization solution made of 5% normal goat serum (NGS), 5% normal rabbit serum (NRS) or 5% BlokHen II (Aves Labs, Inc., Tigard, OR), 0.05% Triton X-100 and PBS. Subsequently, the blocking solution was tipped off and the slides were rinsed in PBS for 2 minutes. Sections were then incubated overnight in a humidified chamber at 4°C with a PBS buffered solution that contained 1% NGS or 1% NRS, 1% bovine serum albumin (BSA) and one of the following primary antibodies: (a) rabbit anti-human/mouse ATF-3 (H-90) IgG (polyclonal, 1:500; Santa Cruz Biotechnology, Inc., Santa Cruz, CA), (b) anti-activated caspase-3 IgG (monoclonal, 1:250; Chemicon International, Temecula, CA) (see FIGURE 9), (c) goat antihuman/ mouse choline acetyl transferase (ChAT) IgG (polyclonal, 1:100; Chemicon International, Temecula, CA) (see FIGURE 6), (d) rabbit anti-mouse glial fibrillary acidic protein IgG (polyclonal, 1:250; GeneTex Inc., San Antonio, TX) (see FIGURE 7), (e) rabbit antihuman/ mouse ionized calcium binding adaptor molecule 1 (IBA-1) IgG (polyclonal, 1:500; Wako Pure Chemical Industries, Ltd, Richmond, VA), (f) mouse anti-human/mouse clone AT8 PHF-1 Tau (monoclonal, 1:200; Pierce Biotechnology Inc., Rockford, IL), (g) rabbit anti-human/mouse TAR DNA-binding protein 43 (TDP43) (1:100; ProteinTech Group Inc., Chicago, IL) (See FIGURE 14), (h) chicken anti-human/mouse β-tubulin 3 (TuJ1 antigen) (polyclonal, 1:100, Aves Labs, Inc., Tigard, OR), (i) rabbit anti-mouse tyrosine hydroxylase (polyclonal, 1:500, Chemicon International, Temecula, CA or polyclonal 1:1000, Affinity BioReagents, Golden, CO) (FIGURE 10), (j) rabbit anti human/mouse anti-pJunser73 IgG (polyclonal, 1:200; Chemicon International, Temecula, CA), (k) rabbit anti human/mouse anti-HSP-70 IgG (polyclonal, 1:200; Chemicon International, Temecula, CA), or (1) rabbit anti human/mouse anti-HSP-25 IgG (polyclonal, 1:100; Chemicon International, Temecula, CA). In each experiment, additional slides were incubated with the primary antibody and the secondary antibody omitted or with secondary antibody and primary antibody omitted to test for nonspecific staining. Where appropriate, positive control slides (Alzheimer's disease patient entorhinal cortex, obtained from Drs. Claudia Schwab and Patrick McGeer of the Kinsmen Laboratory, University of British Columbia, Vancouver, BC, Canada) were also processed as above for comparison. […]

Structure (SMILES): CCC(C=CC(C)C1CCC2C3CC=C4CC(OC5OC(CO)C(O)C(O)C5O)CCC4(C)C3CCC12C)C(C)C (centres unmarked) [SG]
- Rotarod performance (CD-1 mice [1]): trend of diminished performance on the rotarod but numbers did not reach statistical significance; also recorded: decrease in the time without fall
- Leg extension reflex test performance (score) (CD-1 mice [2]; SG-fed animals, soon after 35 weeks / during the study): steady decline in performance; also recorded: decreased
- Leg extension (CD-1 mice [2]; SG-fed vs control, time-point 2, 52 wk): Leg extension* (*p<0.05)
- pathologic phosphorylated TDP-43-containing aggregates in the lumbar spinal cord ([3]; SG-fed animals): increased
- translocation of TDP-43 ([3]; SG-fed animals at 35 weeks): No abnormal translocation
- Phosphorylated TDP-43 aggregates / TDP-43 pathology, animals affected ([3]; SG-fed group, time-point 2, 52 wk): Two of eight and 2/8
- Phosphorylated TDP-43 aggregates ([3]; time-point 1, 35 wk): -
- Phosphorylated TDP-43 aggregates ([3]; time-point 2, 52 wk): +
